Data reported in a melting point compilation (Tetko et al.; mined from patent text by program, amines drawn as free bases though some values may be those of a salt).

melting point | Compound
151 to 152 °C | C=C(C)COc1ccc(Br)cc1CN(CC)c1ccc(-c2cc(O)n(C)n2)nn1
68 to 69 °C | CC(C)c1nn(Cc2ccc(Cl)cc2Cl)cc1CCCO
195 to 205 °C | CC(=O)c1c(C)[nH]c(CC(=O)O)c1C
124 to 125 °C | COC(=O)Cc1ccc(CN2CCN(C(c3ccccc3)c3ccccc3)CC2)cc1
252 to 254 °C | COc1cc(OC)c2c(-c3ccc4c(c3)OCO4)c3c(cc2c1)C(=O)NC3
97 to 99 °C | CCS(=O)(=O)c1ccc(Oc2ccc3c(c2)OCO3)nc1
79 to 80 °C | CCn1cnc2c(Nc3cccc(Cl)c3)nc(NCCN)nc21
210 to 214 °C | CCOc1csc2c(=O)c(S(C)=O)cn(C)c12 (stereo not drawn)
179 to 180 °C | COC(=O)c1cnn(-c2c(Cl)cc(Cl)cc2Cl)c1N
50 to 55 °C | O=C(Nc1ccc(C(F)(F)F)cc1)C1CC(c2ccc(F)cc2)N(c2ccc(Cl)cc2)N1 (stereo not drawn)
63 to 65 °C | S=C=Nc1c(Br)cccc1Br
169 to 171 °C | COc1cc2c(CC#N)c(Br)[nH]c2cc1Br
147 to 148 °C | CC(C)(C)OC(=O)NCc1cccc(Nc2n[nH]c3ncnc(Nc4cccc(Cl)c4)c23)c1
228 to 229 °C | CC(=O)NC[C@H]1CN(c2ccc(C(=O)c3cnc4c(Cl)cc(Cl)cn34)cc2)C(=O)O1
213 to 216 °C | O=c1[nH]c2ccccc2n1-c1ccc(Cl)cc1Cl
293 to 294 °C | Cc1cc(-c2ccc(C(=O)O)cc2)ccn1
129 to 130 °C | CNC(=O)N(O)C(C)c1ccc(Br)cc1 (stereo not drawn)
110 °C | COc1cccc2c1SCCC2=O
67 to 72 °C | COc1ccc2c(c1)[C@@H](O)[C@H](Br)CO2 (relative stereo)
75 to 78 °C | COc1ccc(CNc2ccccc2[N+](=O)[O-])cc1
79 °C | CCOC(=O)C1=C(N(C)C)N=C(C)C(C(=O)OCC)C1c1cccc(Cl)c1 (stereo not drawn)
75 °C | CCOC(CCP(=O)(OCC)OCC)(C(=O)c1ccccc1)c1ccccc1 (stereo not drawn)
114 to 115 °C | c1ccc(CC[C@H]2CNCCN2)cc1
188 to 196 °C | Nc1ccc(C=CC2CSC(=O)NN2)cc1 (stereo not drawn)
196 to 198 °C | CCOC(=O)c1sc(-n2ccc(OCc3ccc(C(F)(F)F)o3)cc2=O)nc1C
285 to 290 °C | O=C(O)c1cc(N2C(=O)CCC2=O)cc([N+](=O)[O-])c1

melting point | Compound
49 to 50.5 °C | CCCCCCCCCCCCCCCCSCC(CN)NC(=O)OC (stereo not drawn)
209 to 210 °C | CCc1sc2ncnc(N)c2c1-c1ccc(NS(=O)(=O)c2ccccc2)cc1
94 to 95.5 °C | O=C(O)Cc1ccc(C(=O)C2CCCCC2)cc1
57 to 58 °C | CCCCCCC#CCC#CCC#CCCCCCCC(=O)O
> 200 °C | O=C(NCc1ccn(-c2cc3c(cc2[N+](=O)[O-])[nH]c(=O)c(=O)n3C2CCCCC2)c1)Nc1ccncc1
177 to 178 °C | Cn1c(=O)c(Oc2ccc(F)cc2F)cc2cnc(S(C)(=O)=O)nc21
129 to 131 °C | O=C(/C=C/C=C/c1ccccc1Cl)NCCCCCC(=O)NO
245 to 250 °C | CCn1c(C)nc2cc(S(=O)(=O)c3cccc4cnccc34)c([N+](=O)[O-])cc21
81.5 to 82 °C | Oc1ccc(Oc2ccccc2F)cc1
172 to 175 °C | COc1ccc(O)c(C2(O)C(=O)Nc3cccc(Br)c32)n1 (stereo not drawn)
220 to 223 °C | O=[N+]([O-])c1c(O)nc(N2CCSCC2)nc1O
184 to 186 °C | C=C1CCCCCCCSC[C@@H](C(=O)O)NC1=O
88 to 90 °C | CC(=O)c1cc2c(c(CCl)c1O)CCCC2
156 to 158 °C | CN(C)CCCOc1ccc(-c2nnc(Cc3ccc(Oc4ccccc4)cc3)o2)cc1
140 to 143 °C | CC(Oc1ccc(Oc2ncc(C(F)(F)F)cc2Cl)cc1)C(=O)Nc1ccc(C(F)(F)F)cc1 (stereo not drawn)
74 to 76 °C | CCN1C(=O)C(=C(O)Cc2ccccc2)SC1=S
40 to 45 °C | C#Cc1ccc(C(=O)OC)nc1
177 to 178 °C | CC(=O)Nc1c(Cl)cnn(-c2ccccc2)c1=O
170 to 172 °C | CC(Oc1ccc2oc3cc(Cl)ccc3c2c1)C(=O)O (stereo not drawn)
180 °C | Cc1cccc(NC(=O)NCC(=O)N(CC(=O)N(C)c2ccccc2)c2ccccc2Cl)c1
165 to 167 °C | NS(=O)(=O)c1ccccc1-c1cnoc1
158 to 160 °C | O=c1c(CO)cc(-c2ccc3occc3c2)nn1Cc1ccc(F)cc1
160 °C | Cc1cccc(NC(=O)NCC(=O)N(CC(=O)N(C)c2ccc(Cl)cc2)c2ccccc2)c1
187 to 188 °C | COc1cc(OC)c2c(c1)N(Cc1ccccn1)C(=O)C21COc2cc3c(cc21)OCCO3 (stereo not drawn)
127 to 128 °C | CC(=O)NCc1ccc2ccn(C3CCN(CCc4ccc(F)cc4)CC3)c2c1
150 °C | O=C1C(=Cc2ccccc2)C(=O)c2ccccc21

melting point | Compound
161 to 162 °C | CC(=O)Nc1cccc2ccc(O)cc12
116 to 117 °C | COc1ccc(C2(/C=C/c3cccc(C#N)c3)CCC(=O)CC2)cc1OC1CCCC1
86 to 87 °C | CCCCCCCCCCCCCCCNC(=O)OCCOCCOC(=O)NCc1ccccn1
85 to 88 °C | CCOC(=O)C1=C(C)NC(C)=C(C(=O)OCCN2CCN(C(c3ccc(C)cc3)c3ccc(C)cc3)CC2)C1c1cccc(Cl)c1Cl (stereo not drawn)
161 °C | CCOC(=O)c1[nH]nnc1Nc1ccc(Cl)cc1
144 °C | CCOC(=O)c1c(C)csc1N/C=C(\C#N)C(=O)OC(C)(C)C
112 °C | CCN(CC)CCOc1ccc(Nc2ncc3c(n2)N(C)C(=O)N(Cc2ccc(OC)cc2)C3)cc1
104 to 107 °C | CN(C(c1ccccc1)c1ccccc1)S(=O)(=O)CC#N
146 °C | CCOC(=O)CC(c1ccccc1)N(C(=O)CNC(=O)Nc1cccc(C)c1)c1ccccc1 (racemic)
136 to 139 °C | CS(=O)(=O)c1ccc(-c2ccc(C(F)(F)F)n2-c2ccc(F)cc2)cc1
133 to 135 °C | N#Cc1ccc(C(F)(F)C(F)(F)C(F)(F)c2ccc(C#N)c(C#N)c2)cc1C#N
87 to 89 °C | CC(C)COC1OC(CO)C(O)C(O)C1(O)N(C(=O)N(CCCl)N=O)C1CCCCC1 (stereo not drawn)
65 to 66 °C | CC(C)(C)c1ccc(Sc2ccc([N+](=O)[O-])cc2)cc1
60 to 62 °C | CCNC(=O)OCCOc1ccc(Oc2ccc(F)cc2)cc1
84 to 88 °C | CC(=O)OC(C)OC(=O)[C@H](Cc1ccc(-c2c(C)n(C)c(=O)n(C)c2=O)cc1)NC(=O)c1c(C)cccc1Cl (stereo partly drawn)
205 to 207 °C | O=C(CCN1CCOCC1)NCc1ccc2c(c1)Cc1c(-c3ccsc3)n[nH]c1-2
154 to 157 °C | Clc1ccc(CNc2nc(Cl)cc(Cl)n2)cc1
209 to 210 °C | O=C1CCCC(c2ccc(Cl)cc2)N1c1ccc(O)cc1 (stereo not drawn)
66 to 69 °C | O=C(NCCO)/C(=C/c1ccc(OC2CC2)cc1)NC(=O)c1ccc(OCCc2ccc(Cl)cc2)cc1
274 to 275 °C | C=Cc1cc(O)cc2nc(-c3ccc(O)cc3F)oc12
98 to 99 °C | NC(=O)c1cccc(OCCCCCBr)c1
192 to 193 °C | Cc1cccc(C)c1NC(N)=NN
94 to 96 °C | COc1ccccc1C(=O)Nc1ccc(Cl)c(C(=O)OC(C)C)c1
175 to 178 °C | CCOC(=CC=O)C1CCC2C3CCC4CC(O)CCC4(C)C3C(=O)CC12C (stereo not drawn)
171 to 172 °C | CC(=O)N1OCC(=O)N(CCl)C1c1ccccc1 (stereo not drawn)
208 to 210 °C | CCOC(COC1CC2C3CCC4=CC(=O)CCC4(C)C3(F)C(O)CC2(C)C1(O)C(=O)CO)OCC (stereo not drawn)

melting point | Compound
70.4 °C | COc1cc(C(=O)CSC)ccc1OC(C)=O
118 to 122 °C | Cc1ccc([C@@H]2c3c(C)c(N4C(=O)CC(c5ccccc5)CC4=O)c(C)c(C)c3OC2(C)C)cc1
200 to 201 °C | CC(C)(C)C(NC(=O)Cc1ccc2ccccc2c1)NC(=NC#N)Nc1cccc2ncccc12 (stereo not drawn)
169 to 171 °C | CCCCOC(=O)COc1ccc(C(=O)Nc2ccccc2Sc2cc(OC)ccc2-c2nnn[nH]2)cc1
151 to 152 °C | FC(F)(F)c1ccc(-c2cc(Oc3ccc4cccnc4c3)ncn2)c(NCC2CCCCC2)n1
266 to 268 °C | O=c1[nH][nH]c(C(F)(F)F)c1Cc1ccc2nccnc2c1
94 to 95 °C | COc1ccc(C(=O)c2sc3ccccc3c2-c2ccccc2)cc1
200 to 202 °C | CN1CCN(CC2CCCCN2CC(=O)N2c3ccccc3NC(=O)c3ccccc32)CC1 (stereo not drawn)
190 to 194 °C | COc1ccc(C=Cc2cc3cc(Br)ccc3o2)cc1
74.1 to 78.1 °C | CCCCCN(CCC12CC3CC(CC(C3)C1)C2)C(=O)NCCCCc1ccncc1
123 to 124 °C | COC(Nc1ccccc1)(OC)c1ccnc(C(=O)c2ccccc2)c1
187 to 189 °C | COc1cc2c(cc1C#N)C1(CO2)C(=O)N(Cc2ccccn2)c2ccccc21 (stereo not drawn)
155 to 159 °C | O=C(O)c1ccc(OCCCOc2ccccc2)cc1C(=O)O
286 °C | O=C(O)CCCCC(=O)Nc1ccc(C(=O)NN=C2C(=O)Nc3ccc(I)cc32)cc1
166 to 168 °C | NS(=O)(=O)Oc1ccc(-c2ccccc2)cc1
179 to 181 °C | COc1ccc(-c2cn3c(n2)-c2ccccc2CC3)cc1
> 300 °C | NC(=O)NCc1cc(Cl)cc(-c2csc(N=C(N)N)n2)n1
175 to 176 °C | CC(C)(NC(=O)C(CS)Cc1ccccc1)C(=O)O (stereo not drawn)
< 20 °C | COc1c2c(nc3ccccc13)CCN(Cc1ccccc1)CC2
134 to 136 °C | COc1ccc(Sc2ccccc2/C=C/C(=O)NCCCCO)cc1
147 to 149 °C | CCc1nn2c(-c3ccc(Cl)cc3Cl)cccc2c1[N+](=O)[O-]
98 to 100 °C | CCOC(=O)c1sc2cc(OCc3ccccc3)ccc2c1Cl
73 °C | O=[N+]([O-])c1ccc(Cl)c(Cl)c1Br

Compound | melting point
O=C(c1c(Cl)cccc1Cl)P(=O)(c1ccccc1)c1ccccc1 | 156 to 158 °C
CCCCCCCCCCCCCCCCc1cc2c(s1)-n1c(C)nnc1CN=C2c1ccccc1Cl | 58 to 60 °C
